Data as given in PMC8791944, “GLUT3 inhibitor discovery through in silico ligand screening and in vivo validation in eukaryotic expression systems” (Scientific Reports, 2022).

Assays:
[1] = tested on: BeWo (choriocarcinoma) cells; test: MTT cancer cell viability assay, BeWo; assay type: cell-based; conditions: Homo sapiens, 48 h
Experimental: (§1) A possible therapeutic application of GLUT3 inhibitors is in oncology, especially for cancers in which GLUT3 is a poor prognosis marker. We tested the effect of GLUT3 inhibitors on the cell viability of several different cancer lines: myeloid leukemia (HL60 and U937), lung cancer (A549), colorectal adenocarcinoma (Caco-2), breast cancer (MCF7), hepatocellular carcinoma (HepG2), and choriocarcinoma (BeWo) cells. GLUT3 inhibitors, at five different concentrations, ranging from 2 to 100 µM, were incubated with cancer cells for 48 h. Then, cell viability was assessed with the MTT assay. […] G3iC and G3iD also affected the leukemia cell lines but at double the concentrations of G3iB and G3iE. […] G3iB had some cytotoxic activity (CC50 < 50 µM) against the highest number of cancer cell lines (HL60, U937, A549, HepG2, and MCF7).
(§2) Cancer cell viability in the presence of GLUT3 inhibitors was assayed using the MTT Cell Viability Kit (Biotium Inc, Freemont, CA) according to manufacturer’s instructions. Cancer cells were grown in the corresponding medium, at 37 °C and 5% CO2 in a humidified incubator. The media (Gibco) for leukemia cells (HL60 and U937), A549, MCF7, BeWo, and HepG2 cells were RPMI 1640, Ham’s F-12K, DMEM:F-12, Ham’s F-12K, and EMEM, respectively, all supplemented with 10% (v/v) fetal bovine serum (HyClone). Caco-2 cells were grown in EMEM supplemented with 20% (v/v) fetal bovine serum. Cells were detached from the culture flasks with Accutase (Innovative Cell Technologies, Inc., San Diego, CA) according to manufacturer’s instructions. Cells were seeded in 96-well plates, at a density of ~ 30,000 cells/well (in 100 µl fresh media) and incubated with varying concentrations of GLUT3 inhibitors for 48 h, at 37 °C and 5% CO2 in a humidified incubator. The inhibitors were dissolved in DMSO, at 100× the final concentration, so that 1 µl of the stock inhibitor concentration was added per well, making the final DMSO concentration 1% (v/v). Therefore, controls for 100% cell viability were cells with 1% (v/v) DMSO without the inhibitors. Controls for 0% cell viability were cells treated with 0.3% (v/v) Tween 20. For MTT assay, 10 µl of MTT reagent was added in each well followed by 3–4 h incubation at 37 °C and 5% CO2 in a humidified incubator. After thoroughly mixing in 200 µl DMSO in each well, the plates were put into a plate reader (BioTek Synergy H1), and the absorbances at 570 nm and 630 nm were measured with Gen5 program (BioTek Inc.). The experimental values represent Abs570 nm-Abs630 nm with each inhibitor condition and control being the average of three wells.
(§3) Supplementary Figure S8. Effect of GLUT3 inhibitors on the viability of various cancer cell lines. Cell viability was determined by MTT assay in A549 (lung cancer), BeWo (choriocarcinoma), Caco-2 (colon cancer), HepG2 (liver cancer), HL-60 (leukemia), MCF7 (breast cancer), and U937 (histiocytic lymphoma) cell lines. GLUT3 inhibitors at concentrations of 2, 5, 10, 20, 50, and 100 µM were incubated with cells in 96-well plates for 48 hours before the addition of the MTT reagent.

[2] = tested on: MCF7 (breast cancer) cells; test: MTT cancer cell viability assay, MCF7; assay type: cell-based; conditions: MCF7, 48 h
Experimental: as §1, §2, §3

| Compound | CC50 [1] [µM] | CC50 ([2]; Homo sapiens) [µM] | CC50 [2] [µM] |
| --- | --- | --- | --- |
| CC(=O)Nc1ccc(S(=O)(=O)Nc2ccc(Nc3cc(N(C)C)nc(C)n3)cc2)cc1 [G3iA, N-(4-{[(4-{[6-(dimethylamino)-2-methylpyrimidin-4-yl]amino}phenyl)amino]sulfonyl}phenyl)acetamide] | > 100 | > 100 | – |
| Cc1cccnc1OC1CCN(c2cc(N3CCCC3CO)ncn2)CC1 (stereo not shown) [G3iC] | > 100 | > 50 | – |
| Cc1cc(NC(=O)CCC2Cc3ccccc3NC2=O)nc(-c2ccccc2)n1 (stereo not shown) [G3iD] | > 100 | > 50 | – |
| O=C(Nc1cccc(Cl)c1)c1cccc(NC(=O)c2cccc([N+](=O)[O-])c2)c1 [G3iE, N-{3-[(3-chloroanilino)carbonyl]phenyl}-3-nitrobenzamide] | > 50 | > 100 | – |
| COc1ccccc1-n1c(/C=C/c2ccc(O)cc2)nc2ccc(Br)cc2c1=O [G3iB, 6-bromo-2-[(E)-2-(4-hydroxyphenyl)ethenyl]-3-(2-methoxyphenyl)quinazolin-4(3H)-one] | > 50 | < 50 | 42.6 ± 4.2 |
| Cc1ccccc1CN(Cc1nnc(C(C)(C)C)o1)c1ccc2nc(O)[nH]c2c1 [G3iF] | ~100 | > 100 | – |
